Tests used:
[1] = tested on: modified luciferase expression; assay: Expression of Luc in different organs (liver, lung, spleen, femur) 6 hours after intravenous administration; format: in vivo; details: i.v., 0.5 mpk
Method: The efficacy of the nanoparticle compositions presented in Tables 1, 1a, 17-1, 19-1, 20-1 and 21-1 was further evaluated by measuring the expression of modified luciferase in the liver, lung, spleen, and femur upon administration of a given composition. Formulations were administered intravenously to mice (n=3) at a dosage of 0.5 mpk and bioluminescence measured after 6 hours. The standard MC3 formulation and a PBS control were also tested.

[2] = Particle size and polydispersity index of nanoparticle compositions (Zetasizer Nano ZS); format: physicochemical; details: for particle size, rank within the named table (in words): comparison amongst compositions
Procedure, shortened: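 Nanoparticle compositions are diluted in 1×PBS, then size and polydispersity index are read on a Zetasizer Nano ZS instrument.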

[3] = tested on: IL-6; assay: Cytokine production induced by sample formulations: IL-6; format: in vivo; details: mice, i.v., 0.5 mpk, 6 hours; for IL-6: in pg/mL (unit assumed)
Procedure, shortened: (§1)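 Mice received nanoparticle formulations intravenously at 0.5 mpk, with standard MC3 formulation and PBS as controls. Cytokine concentrations were measured 6 hours after dosing.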

[4] = tested on: IP-10; assay: Cytokine production induced by sample formulations: IP-10; format: in vivo; details: mice, i.v., 0.5 mpk, 6 hours; for IP-10: in pg/mL (unit assumed)
Procedure, shortened: as §1

[5] = tested on: luciferase (Luc) mRNA expression; assay: Expression of Luc induced by sample formulations, whole-body bioluminescence after intravenous administration; format: in vivo; details: mice, i.v., 0.5 mg/kg
Procedure, shortened: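 Mice (n=6) dosed intravenously with Luc mRNA nanoparticle formulations at 0.5 mg/kg. Whole-body bioluminescence measured at 3, 6 and 24 h. Standard MC3 formulation and PBS control run alongside.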

[6] = pKa of nanoparticle compositions; format: physicochemical
[7] = Encapsulation efficiency of RNA (QUANT-IT RIBOGREEN RNA assay); format: physicochemical; details: for encapsulation efficiency, rank within the named table (in words): comparison amongst compositions
Procedure, shortened: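 Nanoparticle samples diluted to ~5 μg/mL RNA in TE buffer (pH 7.5), incubated with or without 2% Triton X-100 solution at 37 °C for 15 min, then RiboGreen added. Fluorescence read at ~480/520 nm, blank-subtracted; free RNA % = intact over Triton-disrupted signal.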

[8] = Table 20-1, rows without footnote mark

Row | Compound | Total Flux Liver ([1]; Table 19-3, mice) | Total Flux Lung ([1]; Table 19-3, mice) | Total Flux Spleen ([1]; Table 19-3, mice) | PDI ([2]; Table 19-1) | Size (nm) ([2]; Table 19-1) | IL-6 ([3]; Table 19-4) | IP-10 ([4]; Table 19-4) | IP-10 induction, rank or comparison with IL-6 (in words) [4] | Total Flux 3 hours ([5]; Table 19-2) | Total Flux 6 hours ([5]; Table 19-2) | Total Flux 24 hours ([5]; Table 19-2) | pKa ([6]; Table 19-1) | EE (%) ([7]; Table 19-1) | particle size, rank within the named table (in words) [2] | IL-6 induction, rank within the named table (in words) [3] | encapsulation efficiency, rank within the named table (in words) [7] | also measured
1 | CCCCCCCCCN(CCCCCCCCC)CCN1CCNCC1 [Compound 19-1, N-Nonyl-N-(2-(piperazin-1-yl)ethyl)nonan-1-amine] | 8.53E+05 | 1.06E+04 | 1.58E+04 | 0.071 | 98.0 | 144.4 | 51.1 | lowest IP-10 expression | 6.77E+05 | 1.85E+06 | 2.75E+05 | 6.76 | 83.4 |  |  |  | 
2 | CCCCC/C=C\C/C=C\CCCCCCCCN(CCCCCCCC/C=C\C/C=C\CCCCC)CCN1CCNCC1 [Compound 19-3, (9Z,12Z)—N-((9Z,12Z)—Octadeca-9,12-dien-1-yl)-N-(2-(piperazin-1-yl)ethyl)octadeca-9,12-dien-1-amine] | 2.65E+05 | 3.00E+04 | 2.55E+05 | 0.076 | 47.9 | 5.4 | 177.5 |  | 1.69E+06 | 1.21E+06 | 3.39E+05 | 7.24 | 99.7 | smallest particles | lowest IL-6 expression | highest encapsulation efficiency | 
3 | CCCCCCCCCCCCN(CCCCCCCCCCCC)CCN1CCN(C)CC1 [Compound 19-4, N-Dodecyl-N-(2-(4-methylpiperazin-1-yl)ethyl)dodecan-1-amine] | 1.46E+05 | 4.49E+04 | 3.69E+04 | 0.071 | 111.4 | 129.2 | 430.9 | highest IP-10 expression | 6.61E+05 | 4.75E+05 | 3.44E+05 | 7.09 | 95.2 |  |  |  | 
4 | CCCCC/C=C\C/C=C\CCCCCCCCN(CCCCCCCC/C=C\C/C=C\CCCCC)CCN1CCN(CCCCCCCCCCCC)CC1 [Compound 19-6, (9Z,12Z)—N-(2-(4-Dodecylpiperazin-1-yl)ethyl)-N-((9Z,12Z)-octadeca-9,12-dien-1-yl)octadeca-9,12-dien-1-amine] | 3.27E+06 | 1.81E+05 | 3.47E+06 | 0.088 | 137.7 | 7571 | 433 | highest IP-10 expression | 1.07E+07 | 1.27E+07 | 1.29E+06 | 5.89 | 16.9 | largest particles | highest IL-6 expression | lowest encapsulation efficiency | total flux / Luc expression, rank within the named table (in words) ([5]; each time point): next highest flux
5 | CCCCCCCCCCCCN(CCO)CCN(CCCCCCCCCCCC)CCCCCC(=O)OCCCCC [Compound 20-2, Pentyl 6-(dodecyl(2-(dodecyl(2-hydroxyethyl)amino)ethyl)amino)hexanoate] |  |  |  |  |  |  |  |  |  |  |  |  |  |  |  |  | Total Flux Femur ([1]; Table 20-3, mice, femur): 1.07E+06; Total Flux Liver ([1]; Table 20-3, mice): 6.01E+08; Total Flux Lung ([1]; Table 20-3, mice): 4.52E+06; Total Flux Spleen ([1]; Table 20-3, mice): 3.12E+07; PDI [2, 8]: 0.130; Size (nm) [2, 8]: 71.8 nm; IL-6 ([3]; Table 20-4, formula (20-I)): 118.5; IP-10 ([4]; Table 20-4, formula (20-I)): 522.9; Total Flux 3 hours ([5]; Table 20-2): 1.35E+09; Total Flux 6 hours ([5]; Table 20-2): 2.18E+09; Total Flux 24 hours ([5]; Table 20-2): 6.49E+07; pKa [6, 8]: 6.60; EE (%) [7, 8]: 91.6%
